Reference: patent US20250313559A1 (Bayer Aktiengesellschaft, priority 2024, published 2025)

How the values were obtained:
[1] = test system: preclinical cardiorenal models; conditions: preclinical cardiorenal models which develop heart failure; cited from earlier work
[2] = test system: natriuretic peptide levels; conditions: ARTS-HF trial, phase 2; cited from earlier work
[3] = test system: patients across cardio-kidney-metabolic disease states
[4] = test system: patients with HF and LVEF ≥40%; experiment: […]-HF (Example 2) safety: adverse events, hyperkalemia, serum potassium, eGFR, creatinine, vital signs; assay type: in vivo, human; conditions: number of patients (%); for Any Serious Adverse Events: treatment-emergent; for Elevated Serum Creatinine >[…] / Elevated Serum Creatinine ≥3.0 mg/dl / Elevated Serum Potassium >6.0 mmol/liter / Elevated Serum Potassium >[…] / Reduced Serum Potassium < […] / Systolic Blood Pressure <100 mm Hg: patients with at least one assessment
Source text: Safety assessments includes adverse events (AEs), serious adverse events (SAEs), vital signs including heart rate and blood pressure assessment. Safety laboratory tests includes blood chemistry, hematology and urinalysis.
The following safety procedures and variables have been assessed during the study: • SAEs and AEs leading to discontinuation of treatment with study intervention; • Change in body weight from baseline; • Change in serum potassium from baseline; • Number of participants with hyperkalemia (serum potassium >5.5 mmol/L); • Number of participants with severe hyperkalemia (serum potassium >6.0 mmol/L); • Number of participants with hospitalization for hyperkalemia; • Number of participants permanently discontinuing study intervention due to Hyperkalemia; • Change in vital signs (heart rate, SBP and DBP) from baseline; • Change in renal function measured by eGFR (CKD-EPI formula) change from baseline; • Number of participants with hospitalization for worsening of renal function; • Number of participants permanently discontinuing study intervention due to worsening of renal function; and • Changes in laboratory values from baseline.
AEs that occurred or worsened after the first dose of study drug and up to 3 days after the last dose of study drug have been considered as treatment-emergent AEs (TEAEs).
An overall summary of all AEs and treatment emergent AEs (TEAEs) has been generated by treatment group. The number and percentage of patients with TEAEs, post-treatment AEs occurring more than 3 days after last intake of study intervention, treatment-emergent SAEs, treatment-emergent study intervention-related AEs, treatment-emergent study intervention-related SAEs, TEAEs causing premature and permanent discontinuation of study intervention, treatment-emergent non-serious AEs, TEAEs by maximum intensity, drug-related TEAEs by maximum intensity has been summarized by treatment group using Medical Dictionary for Regulatory Activity (MedDRA) terms grouped by Primary System Organ Class and Preferred Term.
The number of patients with treatment-emergent (until 3 days after last study intervention administration) abnormal laboratory values above or below the normal range has been tabulated by the laboratory parameter and treatment group.
Summary statistics including changes from baseline have been calculated by treatment group and visit for all quantitative laboratory parameters, i.e. for hematology, clinical chemistry and urinalysis. Geometric statistics and ratios to baseline has been presented for urinary albumin-to-creatinine ratio (UACR), creatinine, and NT-proBNP, instead of arithmetic statistics with changes from baseline.
The following special safety parameters have been further assessed by displaying the number and percentage of patients with safety events as described below by treatment group, visit, and for any time on treatment (including unscheduled assessments) and until 3 days after last study intervention administration. This has also been performed by stratification factors.

[5] = cited from earlier work
[6] = test system: participants with chronic kidney disease and Type-2 diabetes; conditions: cited from earlier work
[7] = FINE-HEART pooled safety population, finerenone n = 9,482, treatment-emergent
[8] = FINE-HEART pooled safety population, n = 9,482
[9] = FINE-HEART pooled, n = 9,482, investigator reported adverse events
[10] = No SGLT2i Use, finerenone n = 2,601

Question: Which “systolic and diastolic function” value [1] does the source give for `CCOc1ncc(C)c2c1[C@H](c1ccc(C#N)cc1OC)C(C(N)=O)=C(C)N2` [finerenone, (4S)-4-(4-cyano-2-methoxyphenyl)-5-ethoxy-2,8-dimethyl-1,4-dihydro-1,6-naphthyridine-3-carboxamide] here?
Answer: Its value is “improvement”.

Question: What about the “treatment effects on natriuretic peptide levels” value [2] of the same compound?
Answer: Its value is “dose dependent”.

Question: What about the “Any adverse event leading to treatment discontinuation, % of patients” value ([3]; FINE-HEART pooled safety population, finerenone n = 9,482) of the same compound?
Answer: The value was “(5.4%)”.

Question: And the “Any serious adverse event, % of patients” value [3, 7]?
Answer: Its value is “(34.6%)”.

Question: What about the “Any serious adverse event, number of patients” value [3, 7] of the same compound?
Answer: Its value is 3,283.

Question: What about the “Acute kidney injury leading to hospitalization, % of patients” value [3, 8] of the same compound?
Answer: The value was “(1.5%)”.

Question: And the “Acute kidney injury leading to hospitalization, number of patients” value [3, 8]?
Answer: The value was 143.

Question: What about the “Acute kidney injury leading to treatment discontinuation, % of patients” value [3, 8] of the same compound?
Answer: The value was “(0.2%)”.

Question: And the “Acute kidney injury leading to treatment discontinuation, number of patients” value [3, 8]?
Answer: Its value is 15.

Question: What about the “Acute kidney injury, % of patients” value [3, 8] of the same compound?
Answer: Its value is “(3.6%)”.

Question: And the “Gynecomastia or breast hyperplasia, % of patients” value [3, 8]?
Answer: The value was “(0.2%)”.

Question: And the “Gynecomastia or breast hyperplasia, number of patients” value [3, 8]?
Answer: Its value is 16.

Question: What about the “Systolic blood pressure<100 mmHg, % of patients” value [3, 8] of the same compound?
Answer: The value was “(11.1%)”.

Question: And the “Systolic blood pressure<100 mmHg, number of patients” value [3, 8]?
Answer: The value was 1,040.

Question: And the “Any potassium >6.0 mmol/L, % of patients” value ([3]; FINE-HEART pooled, n = 9,482, central laboratory measurements)?
Answer: Its value is “(3.3%)”.

Question: And the “Hyperkalemia leading to death, % of patients” value [3, 9]?
Answer: Its value is “(0.0%)”.

Question: What about the “Hyperkalemia leading to death, number of patients” value [3, 9] of the same compound?
Answer: Its value is 0.

Question: What about the “Hyperkalemia leading to hospitalization, % of patients” value [3, 9] of the same compound?
Answer: The value was “(0.8%)”.

Question: What about the “Hyperkalemia leading to hospitalization, number of patients” value [3, 9] of the same compound?
Answer: The value was 80.

Question: What about the “Hyperkalemia leading to treatment discontinuation, % of patients” value [3, 9] of the same compound?
Answer: Its value is “(1.3%)”.

Question: What about the “Hyperkalemia, % of patients” value [3, 9] of the same compound?
Answer: Its value is “(12.8%)”.

Question: And the “Hyperkalemia, number of patients” value [3, 9]?
Answer: The value was 1,216.

Question: What about the “Any Adverse Events leading to Treatment Discontinuation” value [4, 10] of the same compound?
Answer: The value was 90 (3.5%).

Question: What about the “Hyperkalemia leading to Treatment Discontinuation” value [4, 10] of the same compound?
Answer: Its value is 12 (0.5%).

Question: And the “Investigator Reported Hyperkalemia” value [4, 10]?
Answer: Its value is 246 (9.5%).

Question: What about the “Investigator Reported Hyperkalemia leading to Hospitalization” value [4, 10] of the same compound?
Answer: Its value is 14 (0.5%).

Question: And the “Any Serious Adverse Events” value [4, 10]?
Answer: The value was 995 (38.3%).

Question: What about the “Elevated Serum Creatinine >[…]” value ([4]; No SGLT2i Use) of the same compound?
Answer: The value was 120 (4.8%).

Question: What about the “Elevated Serum Creatinine ≥3.0 mg/dl” value ([4]; No SGLT2i Use) of the same compound?
Answer: The value was 50 (2.0%).

Question: What about the “Elevated Serum Potassium >6.0 mmol/liter” value ([4]; No SGLT2i Use) of the same compound?
Answer: Its value is 76 (3.0%).

Question: And the “Elevated Serum Potassium >[…]” value ([4]; No SGLT2i Use)?
Answer: The value was 358 (14.2%).

Question: What about the “Reduced Serum Potassium < […]” value ([4]; No SGLT2i Use) of the same compound?
Answer: Its value is 118 (4.7%).

Question: And the “Systolic Blood Pressure <100 mm Hg” value ([4]; No SGLT2i Use)?
Answer: Its value is 435 (17.2%).

Question: What about the “Any Adverse Events leading to Treatment Discontinuation” value ([4]; SGLT2i Use, finerenone n = 392) of the same compound?
Answer: The value was 6 (1.5%).

Question: And the “Hyperkalemia leading to Treatment Discontinuation” value ([4]; SGLT2i Use, finerenone n = 392)?
Answer: Its value is 1 (0.3%).

Question: What about the “Investigator Reported Hyperkalemia” value ([4]; SGLT2i Use, finerenone n = 392) of the same compound?
Answer: The value was 43 (11.0%).

Question: What about the “Investigator Reported Hyperkalemia leading to Hospitalization” value ([4]; SGLT2i Use, finerenone n = 392) of the same compound?
Answer: Its value is 2 (0.5%).

Question: And the “Any Serious Adverse Events” value ([4]; SGLT2i Use, finerenone n = 392)?
Answer: The value was 162 (41.3%).

Question: What about the “Elevated Serum Creatinine >[…]” value ([4]; SGLT2i Use) of the same compound?
Answer: The value was 21 (5.5%).

Question: And the “Elevated Serum Creatinine ≥3.0 mg/dl” value ([4]; SGLT2i Use)?
Answer: The value was 7 (1.8%).

Question: What about the “Elevated Serum Potassium >6.0 mmol/liter” value ([4]; SGLT2i Use) of the same compound?
Answer: Its value is 10 (2.6%).

Question: And the “Elevated Serum Potassium >[…]” value ([4]; SGLT2i Use)?
Answer: The value was 55 (14.5%).

Question: What about the “Reduced Serum Potassium < […]” value ([4]; SGLT2i Use) of the same compound?
Answer: The value was 9 (2.4%).

Question: And the “Systolic Blood Pressure <100 mm Hg” value ([4]; SGLT2i Use)?
Answer: The value was 103 (27.0%).

Question: What about the “tissue distribution between the heart and kidney” value ([5]; compared with steroidal mineralocorticoid receptor antagonists) of the same compound?
Answer: Its value is “more balanced”.

Question: And the renal elimination ([5]; in vivo)?
Answer: Its renal elimination is “less than 1%”.

Question: What about the “cardiovascular events, including heart failure hospitalizations” value [6] of the same compound?
Answer: The value was “reduced”.

Question: And the kidney disease progression [6]?
Answer: Its kidney disease progression is “reduced”.
